Test: Clinical study in NSCLC subjects: treatment-related adverse events (Example 10)
Format: in vivo, human
Details: oral hemifumarate
Protocol: A clinical study was conducted using Compound I in human subjects having non-small cell lung cancer (NSCLC) comprising EGFR exon 20 insertion mutations, HER2 exon 20 insertion mutations, or HER2 amplification or overexpression. A total of 50 human subjects having non-small cell lung cancer comprising one or more EGFR exon 20 insertion mutations, HER2 exon 20 insertion mutations, or HER2 amplification or overexpression were enrolled in the study as of Jul. 31, 2023 with data collected as of Sep. 26, 2023. The subjects were enrolled into one of ten dosing cohorts that were each orally administered Compound I in the form of a hemifumarate salt as shown in Table 13 (QD=once per day; BID=twice per day).
The TRAEs that occurred in equal to or greater than 10% of subjects in the study are set forth in Tables 15 to 18 (TDD=total daily dose; n=number; N/A=not applicable; the term rash includes the following terms: acne, dermatitis, dermatitis acneiform, eczema, hand dermatitis, and rash).

## C=CC(=O)Nc1cc(Nc2cc(N3OCC[C@@H]3c3cc(F)cc(F)c3)ncn2)c(OC)cc1N1CCC(N2CCN(C3CC3)CC2)CC1 [Compound I, N-[2-[4-(4-cyclopropyl-1-piperazinyl)-1-piperidinyl]-5-[[6-[(3R)-3-(3,5-difluorophenyl)-2-isoxazolidinyl]-4-pyrimidinyl]amino]-4-methoxyphenyl]-2-propenamide]
  Dose reductions and discontinuations: infrequent dose reductions and discontinuations
45 mg-60 mg TDD (n = 23)
  Decreased appetite, Grade 1: (22) %
  Decreased appetite, Grade 1, number of subjects: 5 n
  Decreased appetite, Grade 2: (4) %
  Decreased appetite, Grade 2, number of subjects: 1 n
  Diarrhea, Grade 1: (30) %
  Diarrhea, Grade 1, number of subjects: 7 n
  Diarrhea, Grade 2: (9) %
  Diarrhea, Grade 2, number of subjects: 2 n
  Diarrhea, Grade 3: 9%
  Diarrhea, Grade 3, number of subjects: 2 n
  Dose discontinuations: 4%
  Dose discontinuations, number: 1 n
  Dose reductions: 13%
  Dose reductions, number: 3 n
  Nausea, Grade 1: (9) %
  Nausea, Grade 1, number of subjects: 2 n
  Nausea, Grade 2: (9) %
  Nausea, Grade 2, number of subjects: 2 n
  Paronychia, Grade 1: (17) %
  Paronychia, Grade 1, number of subjects: 4 n
  Paronychia, Grade 2: (17) %
  Paronychia, Grade 2, number of subjects: 4 n
  Pruritis, Grade 1: (17) %
  Pruritis, Grade 1, number of subjects: 4 n
  Pruritis, Grade 2: (9) %
  Pruritis, Grade 2, number of subjects: 2 n
  Pruritis, Grade 3: 4%
  Pruritis, Grade 3, number of subjects: 1 n
  Rash, Grade 1: (26) %
  Rash, Grade 1, number of subjects: 6 n
  Rash, Grade 2: (26) %
  Rash, Grade 2, number of subjects: 6 n
  Stomatitis, Grade 1: (9) %
  Stomatitis, Grade 1, number of subjects: 2 n
  Stomatitis, Grade 2: (9) %
  Stomatitis, Grade 2, number of subjects: 2 n
  Stomatitis, Grade 3: 4%
  Stomatitis, Grade 3, number of subjects: 1 n
  Vomiting, Grade 1: (9) %
  Vomiting, Grade 1, number of subjects: 2 n
<45 mg TDD (n = 18)
  Decreased appetite, Grade 2: (6) %
  Decreased appetite, Grade 2, number of subjects: 1 n
  Diarrhea, Grade 1: (11) %
  Diarrhea, Grade 1, number of subjects: 2 n
  Diarrhea, Grade 2: (11) %
  Diarrhea, Grade 2, number of subjects: 2 n
  Dose discontinuations: 9%
  Dose discontinuations, number: 1 n
  Dose reductions: 18%
  Dose reductions, number: 2 n
  Nausea, Grade 1: (6) %
  Nausea, Grade 1, number of subjects: 1 n
  Paronychia, Grade 1: (6) %
  Paronychia, Grade 1, number of subjects: 1 n
  Paronychia, Grade 2: (11) %
  Paronychia, Grade 2, number of subjects: 2 n
  Pruritis, Grade 1: (11) %
  Pruritis, Grade 1, number of subjects: 2 n
  Rash, Grade 1: (33) %
  Rash, Grade 1, number of subjects: 6 n
  Rash, Grade 2: (22) %
  Rash, Grade 2, number of subjects: 4 n
  Stomatitis, Grade 1: (22) %
  Stomatitis, Grade 1, number of subjects: 4 n
  Stomatitis, Grade 2: (11) %
  Stomatitis, Grade 2, number of subjects: 2 n
  Vomiting, Grade 1: (11) %
  Vomiting, Grade 1, number of subjects: 2 n
All doses
  Decreased appetite, All Grades: (14) %
  Decreased appetite, All Grades, number of subjects: 7 n
  Diarrhea, All Grades: (40) %
  Diarrhea, All Grades, number of subjects: 20 n
  Dose discontinuations: (4) %
  Dose discontinuations, number: 2 n
  Dose reductions: (16) %
  Dose reductions, number: 8 n
  Nausea, All Grades: (16) %
  Nausea, All Grades, number of subjects: 8 n
  Paronychia, All Grades: (28) %
  Paronychia, All Grades, number of subjects: 14 n
  Pruritis, All Grades: (22) %
  Pruritis, All Grades, number of subjects: 11 n
  Rash, All Grades: (54) %
  Rash, All Grades, number of subjects: 27 n
  Stomatitis, All Grades: (30) %
  Stomatitis, All Grades, number of subjects: 15 n
  Vomiting, All Grades: (14) %
  Vomiting, All Grades, number of subjects: 7 n
Each dose level
  Treatment-related adverse events (TRAEs), grade: Grade 1 and 2 treatment-related adverse events (TRAEs) at each dose level
≥75 mg TDD (n = 9)
  Diarrhea, Grade 1: 22%
  Diarrhea, Grade 1, number of subjects: 2 n
  Diarrhea, Grade 2: 22%
  Diarrhea, Grade 2, number of subjects: 2 n
  Diarrhea, Grade 3: 11%
  Diarrhea, Grade 3, number of subjects: 1 n
  Dose reductions: 33%
  Dose reductions, number: 3 n
  Nausea, Grade 1: 11%
  Nausea, Grade 1, number of subjects: 1 n
  Nausea, Grade 2: 11%
  Nausea, Grade 2, number of subjects: 1 n
  Nausea, Grade 3: 11%
  Nausea, Grade 3, number of subjects: 1 n
  Paronychia, Grade 1: 22%
  Paronychia, Grade 1, number of subjects: 2 n
  Paronychia, Grade 2: 11%
  Paronychia, Grade 2, number of subjects: 1 n
  Pruritis, Grade 1: 11%
  Pruritis, Grade 1, number of subjects: 1 n
  Pruritis, Grade 2: 11%
  Pruritis, Grade 2, number of subjects: 1 n
  Rash, Grade 1: 44%
  Rash, Grade 1, number of subjects: 4 n
  Rash, Grade 2: 11%
  Rash, Grade 2, number of subjects: 1 n
  Stomatitis, Grade 1: 22%
  Stomatitis, Grade 1, number of subjects: 2 n
  Stomatitis, Grade 2: 22%
  Stomatitis, Grade 2, number of subjects: 2 n
  Vomiting, Grade 1: 11%
  Vomiting, Grade 1, number of subjects: 1 n
  Vomiting, Grade 2: 11%
  Vomiting, Grade 2, number of subjects: 1 n
  Vomiting, Grade 3: 11%
  Vomiting, Grade 3, number of subjects: 1 n

Reference: patent US20260306491A1, “EGFR INHIBITOR FOR TREATING CANCERS COMPRISING ATYPICAL EGFR MUTATIONS” (ORIC Pharmaceuticals, Inc., priority 2023, published 2026)
